Values quoted from earlier work, collected in patent US20190151634A1, “TREATMENT OF EXCESSIVE MENSTRUAL BLOOD LOSS BY FEMININE SANITARY PRODUCTS MEDICATED WITH HEMOSTATIC AGENT” (ARSTAT, INC., priority 2011, published 2019).

Assays:
[1] = oral, 6 g/day (EMEA review)
[2] = mouthwash, compared to placebo
[3] = locally administered, without detectable plasma drug levels
[4] = after administration of an oral tablet

| Molecule | plasma concentrations (after a mouth rinse) | saliva concentrations, maximum level (after a mouth rinse) | time saliva concentration remained at a therapeutic level (after a mouth rinse) | drug in saliva samples [4] | mean drug plasma concentrations [4] | risk of gastrointestinal adverse events [1] | incidence of postoperative bleeding complications [2] | postoperative blood loss [3] |
| --- | --- | --- | --- | --- | --- | --- | --- | --- |
| NC[C@H]1CC[C@H](C(=O)O)CC1 [tranexamic acid] | below 2 mcg/mL | above 200 mcg/mL | more than two hours | not detected | 7000 ng/mL | increased | reduce the incidence of postoperative bleeding complications |  |
| aprotinin |  |  |  |  |  |  |  | Reduction of the postoperative blood loss |
